pIC50: −log10 of the molar value. Calls of active or inactive are those of the source. No cut-off for these calls is given here.
Experiments:
Cholinesterase [1] = molecular target: T1, Cholinesterase (Homo sapiens, UniProt P06276); test: Inhibition of BuchE (unknown origin)
Acetylcholinesterase [2] = molecular target: T2, Acetylcholinesterase (Homo sapiens, UniProt P22303); test: Inhibition of AChE (unknown origin) at 10 uM relative to control
Cholinesterase [3] = molecular target: T1, Cholinesterase; test: Inhibition of BuchE (unknown origin) at 10 uM relative to control
Acetylcholinesterase [4] = molecular target: T2, Acetylcholinesterase; test: Inhibition of AChE (unknown origin)
SH-SY5Y [5] = test: Cytotoxicity against human SH-SY5Y cells assessed as reduction in cell viability at 50 uM incubated for 24 hrs by MTT assay relative to control; type: toxicity, cell-based
[6] = Permeability of compound by PAMPA-BBB assay; type: ADME; conditions: read-out: permeability
HepG2 [7] = test: Cytotoxicity against human HepG2 cells assessed as reduction in cell viability at 50 uM incubated for 24 hrs by MTT assay relative to control; type: toxicity, cell-based; conditions: hepg2, 24 h
Cholinesterase [8] = molecular target: T1, Cholinesterase; test: Competitive inhibition of BuChE (unknown origin) assessed as increase in Km with constant Vmax at 0 to 400 nM using varying concentrations of substrate by Lineweaver-Burk plot analysis; conditions: dose 0-400 nM
HepG2 [9] = test: Cytotoxicity against human HepG2 cells assessed as reduction in cell viability at <20 uM incubated for 24 hrs by MTT assay; type: toxicity, cell-based; conditions: hepg2, 24 h
SH-SY5Y [10] = test: Cytotoxicity against human SH-SY5Y cells assessed as reduction in cell viability at <20 uM incubated for 24 hrs by MTT assay; type: toxicity, cell-based

T1 sequence (P06276 whole entry): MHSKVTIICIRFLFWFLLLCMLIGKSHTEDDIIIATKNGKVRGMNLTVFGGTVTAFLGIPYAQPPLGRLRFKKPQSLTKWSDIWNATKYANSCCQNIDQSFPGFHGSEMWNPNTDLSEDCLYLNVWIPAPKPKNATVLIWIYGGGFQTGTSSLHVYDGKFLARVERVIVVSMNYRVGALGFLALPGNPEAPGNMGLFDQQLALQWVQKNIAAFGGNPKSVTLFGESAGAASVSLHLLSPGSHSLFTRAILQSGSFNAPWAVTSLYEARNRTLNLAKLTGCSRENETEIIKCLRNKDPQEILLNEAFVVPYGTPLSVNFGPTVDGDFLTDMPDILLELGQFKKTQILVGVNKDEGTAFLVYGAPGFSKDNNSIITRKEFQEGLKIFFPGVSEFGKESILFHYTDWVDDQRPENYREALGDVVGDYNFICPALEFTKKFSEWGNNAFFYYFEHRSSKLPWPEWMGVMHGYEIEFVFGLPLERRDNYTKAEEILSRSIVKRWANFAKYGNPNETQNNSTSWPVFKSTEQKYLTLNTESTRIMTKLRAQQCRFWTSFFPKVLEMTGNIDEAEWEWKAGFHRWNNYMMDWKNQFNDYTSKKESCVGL
T2 sequence (P22303 whole entry): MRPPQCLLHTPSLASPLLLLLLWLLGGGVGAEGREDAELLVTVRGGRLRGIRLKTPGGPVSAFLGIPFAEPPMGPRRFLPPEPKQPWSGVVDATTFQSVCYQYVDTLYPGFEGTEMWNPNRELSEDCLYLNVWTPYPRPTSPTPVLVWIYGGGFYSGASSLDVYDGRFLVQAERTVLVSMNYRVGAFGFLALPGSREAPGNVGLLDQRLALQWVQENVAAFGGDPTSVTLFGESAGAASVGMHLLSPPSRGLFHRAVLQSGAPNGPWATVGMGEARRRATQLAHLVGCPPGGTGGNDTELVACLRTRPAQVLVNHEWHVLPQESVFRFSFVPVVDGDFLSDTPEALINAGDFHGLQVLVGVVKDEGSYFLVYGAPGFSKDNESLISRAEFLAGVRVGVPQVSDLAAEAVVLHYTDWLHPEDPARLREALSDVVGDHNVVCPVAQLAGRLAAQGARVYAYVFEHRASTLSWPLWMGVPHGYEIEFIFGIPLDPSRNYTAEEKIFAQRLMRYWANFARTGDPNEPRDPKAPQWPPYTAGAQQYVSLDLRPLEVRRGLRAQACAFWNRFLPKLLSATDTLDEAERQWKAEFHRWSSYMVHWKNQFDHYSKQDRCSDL

SMILES | pIC50 (Cholinesterase [1]) | inhibition (Acetylcholinesterase [2]) | inhibition (Cholinesterase [3]) | further results
Cc1ccc(OCc2nc(CN(CC(C)C)C(=O)c3cccc(C)c3)cs2)cc1 | 5.93 | -5.65% | 94.1% | –
CNC(=O)Oc1ccc2c(c1)[C@]1(C)CCN(C)[C@]1(C)N2C | 7.80 | – | – | –
CN1c2ccccc2C(NCCCCCCC(=O)CCCCNc2c3c(nc4ccccc24)CCCC3)c2ccc(Cl)cc2S1(=O)=O (centres undefined) | 8.40 | – | – | pIC50 (Acetylcholinesterase [4]): 6.80
Cc1ccc(OCc2nc(CN(CC(C)C)C(=O)c3ccc(Cl)cc3)cs2)cc1 | 5.65 | -6.51% | 65.5% | –
CN(Cc1csc(COc2ccc(F)cc2)n1)C(=O)c1ccc2c(c1)OCO2 | – | 12.8% | 31.9% | –
Cc1ccc(OCc2nc(CN(CC(C)C)C(=O)c3ccc4c(c3)OCO4)cs2)cc1 | 5.89 | 1.76% | 87.2% | –
Cc1ccc(OCc2nc(CN(CC(C)C)C(=O)c3ccco3)cs2)cc1 | 5.78 | 1.61% | 87.8% | –
Cc1ccc(S(=O)(=O)C(=O)N(Cc2csc(COc3ccc(F)cc3)n2)CC(C)C)cc1 | 5.16 | 14.3% | 64.4% | –
COCc1nc(CN(CC(C)C)C(=O)c2ccc3c(c2)OCO3)cs1 | – | 4.72% | 15.3% | –
Cc1ccc(OCc2nc(CN(CC(C)C)C(=O)c3cccc(F)c3)cs2)cc1 | 5.61 | 0.51% | 78.2% | –
CC(C)CN(Cc1csc(COc2ccc(Cl)cc2)n1)C(=O)c1ccc2c(c1)OCO2 | 6.62 | -9.46% | 91.2% | –
Cc1ccc(OCc2nc(CN(CC(C)C)C(=O)S(=O)(=O)c3ccc(C)cc3)cs2)cc1 | – | 10.1% | 38.4% | –
COc1ccc(C(=O)N(Cc2csc(COc3ccc(C)cc3)n2)CC(C)C)cc1 | – | 4.91% | 32.8% | –
Cc1ccc(OCc2nc(CN(CC(C)C)C(=O)c3cccs3)cs2)cc1 | 5.64 | -0.31% | 82% | –
COc1ccc(OCc2nc(CN(CC(C)C)C(=O)c3ccc4c(c3)OCO4)cs2)cc1 | 5.74 | -5.49% | 77.8% | –
COc1ccccc1C(=O)N(Cc1csc(COc2ccc(C)cc2)n1)CC(C)C | – | 2.25% | 26% | –
CCCC(=O)N(Cc1csc(COc2ccc(C)cc2)n1)CC(C)C | 5.34 | 21.2% | 66% | –
Cc1ccc(OCc2nc(CN(CC(C)C)C(=O)c3ccccc3Cl)cs2)cc1 | 5.40 | – | 72.4% | –
CC(C)CN(Cc1csc(COc2ccc(C(F)(F)F)cc2)n1)C(=O)c1ccc2c(c1)OCO2 | 5.28 | 1.71% | 65.9% | –

SMILES | pIC50 (Cholinesterase [1]) | inhibition (Acetylcholinesterase [2]) | inhibition (Cholinesterase [3]) | further results
COc1cccc(C(=O)N(Cc2csc(COc3ccc(C)cc3)n2)CC(C)C)c1 | 6.01 | 1.46% | 91.4% | –
Cc1ccc(OCc2nc(CN(CC(C)C)C(=O)S(=O)(=O)c3ccccc3)cs2)cc1 | – | 12% | 32.9% | –
Cc1ccc(OCc2nc(CN(CC(C)C)C(=O)S(=O)(=O)c3ccc4ccccc4c3)cs2)cc1 | – | 18.7% | 36.5% | –
CC(C)CN(Cc1csc(COc2ccc(F)cc2)n1)C(=O)S(=O)(=O)c1ccccc1 | 5.09 | 9.12% | 55.1% | –
Cc1ccc(OCc2nc(CN(CC(C)C)C(=O)c3ccc(F)cc3)cs2)cc1 | 5.66 | – | 82.2% | –
Cc1ccc(OCc2nc(CN(CC(C)C)C(=O)c3ccccc3F)cs2)cc1 | 5.86 | – | 86.6% | –
Cc1ccc(OCc2nc(CN(CC(C)C)C(=O)c3c(F)cccc3F)cs2)cc1 | 5.31 | 0.18% | 66.4% | –
CCC(=O)N(Cc1csc(COc2ccc(C)cc2)n1)CC(C)C | 5.09 | -2.4% | 55.3% | –
CCCCCC(=O)N(Cc1csc(COc2ccc(C)cc2)n1)CC(C)C | 5.70 | 2.55% | 86.1% | –
Cc1ccc(OCc2nc(CN(CC(C)C)C(=O)c3cccc(Cl)c3)cs2)cc1 | 6.07 | -3.62% | 97% | –
Cc1ccc(OCc2nc(CN(CC(C)C)C(=O)c3ccccc3)cs2)cc1 | 5.94 | 0.25% | 92% | –
CC(C)CN(Cc1csc(COc2ccc(F)cc2)n1)C(=O)c1ccc2c(c1)OCO2 | 6.89 | -9.02% | 96.4% | Activity (SH-SY5Y [5]): < 40%; Papp [6]: 4.97 ×10⁻⁶ cm/s; Activity (HepG2 [7]): < 40%; inhibition (Cholinesterase [8]): Active; Activity (HepG2 [9]): Non-Toxic; Activity (SH-SY5Y [10]): Non-Toxic
Cc1ccc(OCc2nc(CN(CC(C)C)C(=O)S(=O)(=O)c3cccnc3)cs2)cc1 | – | 16.5% | 48.3% | –
Nc1c2c(nc3ccccc13)CCCC2 | – | – | 0.07% | –
Cc1ccc(OCc2nc(CN(CC(C)C)C(=O)c3ccccc3C)cs2)cc1 | 5.39 | – | 75.2% | –
Cc1ccc(OCc2nc(CN(CC(C)C)C(=O)c3ccc(C)cc3)cs2)cc1 | 5.98 | – | 92.6% | –
CC(C)CN(Cc1csc(COc2ccc(F)cc2)n1)C(=O)S(=O)(=O)c1ccc2ccccc2c1 | – | 20.9% | 40.7% | –
CC(=O)N(Cc1csc(COc2ccc(C)cc2)n1)CC(C)C | 5.22 | 19.9% | 64.8% | –
CC(=O)[C@H]1CC[C@H]2[C@@H]3CCC4=CC(=O)CC[C@]4(C)[C@H]3CC[C@]12C [PROGESTERONE] | – | – | – | Papp [6]: 8.9 ×10⁻⁶ cm/s
